# Assays:
# [1] = system: AsPC-1 cells; assay: AsPC-1 CTG proliferation assay (120 h) (pancreatic cancer, G12D); type: cell-based; conditions: Homo sapiens, ASPC1
# Procedure: (§1) AsPC-1 cells (ATCC CRL-1682) are dispensed into black 384-well plates, flat and clear bottom (Greiner, PNr. 781091) at a density of 500 cells per well in 60 μl RPMI ATCC-Formulation (PAN P04-18047)+10% FCS (fetal calf serum, HyClone, SH30084.03). Cells are incubated overnight at 37° C. in a humidified tissue culture incubator at 5% CO2. Compounds (10 mM stock in DMSO) are added at logarithmic dose series using the ECHO acoustic liquid handler system (Beckman Coulter), normalizing for added DMSO and including DMSO controls. All compound treatments are performed in technical duplicates. For the TO time point measurement, untreated cells are analyzed at the time of compound addition. Plates are incubated for 120 h, and cell viability is measured using CellTiter-Glo luminescent cell viability reagent (Promega product code G7570). Viability (stated as percent of control) is defined as relative luminescence units RLU of each well divided by the RLU of cells in DMSO controls. IC50 values are determined from viability measurements by non-linear regression using a four-parameter model.
# (§2) IC50 values of representative compounds according to the invention measured with these assays in the indicated cell lines are presented in Table 46.
# [2] = target: KRAS (G12D)::SOS1 protein-protein interaction (Homo sapiens (Human), UniProt P01116, G12D); assay: KRAS::SOS1 AlphaScreen binding assay (KRAS G12D); conditions: GDP
# How it was run: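 AlphaScreen assay with KRAS G12D (1-169, 6His/avi-tagged, 10 nM), GST-SOS1 564-1049 (5 nM) and GDP (10 μM) in PBS, 0.1% BSA, 0.05% Tween 20; compound up to 100 μM top concentration, eleven fivefold dilutions in duplicate. After 30 min, glutathione acceptor and streptavidin donor beads (10 μg/mL each) were added and signal read after a further 60 min at room temperature in the dark; IC50 from 4-parameter logistic fit.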
# [3] = system: MKN1 cells; assay: MKN1 CTG proliferation assay (120 h) (gastric cancer, wt amplified); type: cell-based; conditions: Homo sapiens, MKN-1
# Procedure: as §1, with “MKN1” for “AsPC-1”, “(JCRB0252)” for “(ATCC CRL-1682)”, “200” for “500”, “RPMI-1640” for “RPMI”, “(Gibco #A10491)+10%” for “(PAN P04-18047)+10%”
# as §2
# Chain of KRAS (G12D)::SOS1 protein-protein interaction (P01116 other isoform, or with tags, fused parts or gaps G12D): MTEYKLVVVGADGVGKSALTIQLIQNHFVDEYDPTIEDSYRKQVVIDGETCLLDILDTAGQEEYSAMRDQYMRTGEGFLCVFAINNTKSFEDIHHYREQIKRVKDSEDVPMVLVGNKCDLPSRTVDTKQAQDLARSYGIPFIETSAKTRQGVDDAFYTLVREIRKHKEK
SMILES,IC50 [1] [nM],IC50 [2] [nM],IC50 [3] [nM]
Cc1cn([C@@H]2CCOC2)c2nc(-c3onc4c3CCC[C@@]43CCCc4sc(N)c(C#N)c43)nc(O[C@@H](C)[C@@H]3CCCN3C)c12 [I-41],980,3,696
Cc1nn([C@@H]2CCOC2)c2nc(-c3onc4c3CCC[C@@]43CCCc4sc(N)c(C#N)c43)nc(O[C@@H](C)[C@@H]3CCCN3C)c12 [I-42],1180,3,81
C[C@H](Oc1nc(-c2onc3c2CCC[C@@]32CCCc3sc(N)c(C#N)c32)nc2c1cnn2[C@@H]1CCOC1)[C@@H]1CCCN1C [I-43],1390,2,155
C[C@@H]1COC[C@H](n2c(=O)n(C)c3c(O[C@@H](C)[C@@H]4CCCN4C)nc(-c4onc5c4CCC[C@@]54CCCc5sc(N)c(C#N)c54)nc32)C1 [I-44],271,1,10
C[C@H](Oc1nc(-c2onc3c2CCC[C@@]32CCCc3sc(N)c(C#N)c32)nc2c1n(C)c(=O)n2[C@@]12COC[C@@H]1C2)[C@@H]1CC[C@H](C)N1C [I-45],286,1,11
CO[C@@H]1C[C@@H]([C@H](C)Oc2nc(-c3onc4c3CCC[C@@]43CCCc4sc(N)c(C#N)c43)nc3c2n(C)c(=O)n3[C@@]23COC[C@@H]2C3)N(C)C1 [I-46],292,1,9
C[C@H](Oc1nc(-c2onc3c2CCC[C@@]32CCCc3sc(N)c(C#N)c32)nc2c1COC[C@]21CCOC1)[C@@H]1CCCN1C [I-54],76,1,7
C[C@H](Oc1nc(-c2onc3c2CCC[C@@]32CCCc3sc(N)c(C#N)c32)nc2c1CN(C1COC1)C[C@]21CCOC1)[C@@H]1CC[C@H](C)N1C [I-55],202,1,18
C[C@H](Oc1nc(-c2onc3c2CCC[C@@]32CCCc3sc(N)c(C#N)c32)nc2c1CN(C1COC1)C[C@]21CCOC1)[C@@H]1CCCN1C [I-56],92,1,15
CO[C@H]1CCN(C)[C@@H]1[C@H](C)Oc1nc(-c2onc3c2CCC[C@@]32CCCc3sc(N)c(C#N)c32)nc2c1CN(C1COC1)C[C@]21CCOC1 [I-57],129,1,1
CO[C@@H]1C[C@@H]([C@H](C)Oc2nc(-c3onc4c3CCC[C@@]43CCCc4sc(N)c(C#N)c43)nc3c2CN(C2COC2)C[C@]32CCOC2)N(C)C1 [I-58],314,1,21

# Continued, values first:
IC50 [1] [nM],IC50 [2] [nM],IC50 [3] [nM],SMILES
323,1,6,CO[C@H]1CCN(C)[C@@H]1[C@H](C)Oc1nc(-c2noc3c2CCC[C@@]32CCCc3sc(N)c(C#N)c32)nc2c1n(C)c(=O)n2[C@@H]1CCOC1 [II-1]
338,1,4,C[C@H](Oc1nc(-c2noc3c2CCC[C@@]32CCCc3sc(N)c(C#N)c32)nc2c1n(C)c(=O)n2[C@@H]1CCOC1)[C@@H]1CCCN1C [II-2]
236,2,14,CO[C@H]1CCN(C)[C@@H]1[C@H](C)Oc1nc(-c2noc3c2CCC[C@@]32CCCc3sc(N)c(C#N)c32)nc2c1n(C)c(=O)n2[C@@H]1CCCOC1 [II-3]
300,1,63,C[C@H](Oc1nc(-c2noc3c2CCC[C@@]32CCCc3sc(N)c(C#N)c32)nc2c1cnn2[C@@H]1CCOC1)[C@@H]1CCCN1C [II-4]
40,1,2,C[C@H](Oc1nc(-c2noc3c2CCC[C@@]32CCCc3sc(N)c(C#N)c32)nc2c1n(C)c(=O)n2[C@H]1CO[C@@H](C)C1)[C@@H]1CCCN1C [II-5]
265,1,12,CO[C@@H]1C[C@@H]([C@H](C)Oc2nc(-c3noc4c3CCC[C@@]43CCCc4sc(N)c(C#N)c43)nc3c2n(C)c(=O)n3[C@@]23COC[C@@H]2C3)N(C)C1 [II-6]
307,2,41,C[C@H](Oc1nc(-c2noc3c2CCC[C@@]32CCCc3sc(N)c(C#N)c32)nc2c1CN(c1ncccn1)[C@]21CCOC1)[C@@H]1CCCN1C [II-7a]
629,5,635,C[C@H](Oc1nc(-c2noc3c2CCC[C@@]32CCCc3sc(N)c(C#N)c32)nc2c1CN(c1ncccn1)[C@@]21CCOC1)[C@@H]1CCCN1C [II-7b]
62,1,3,C[C@H](Oc1nc(-c2noc3c2CCC[C@@]32CCCc3sc(N)c(C#N)c32)nc2c1COC[C@]21CCOC1)[C@@H]1CCCN1C [II-8]
1070,2,209,C[C@H](Oc1nc(-c2noc3c2CCC[C@@]32CCCc3sc(N)c(C#N)c32)nc2c1COC[C@@]21CCOC1)[C@@H]1CCCN1C [II-9a]
414,1,19,C[C@H](Oc1nc(-c2noc3c2CCC[C@@]32CCCc3sc(N)c(C#N)c32)nc2c1CCO[C@]21CCOC1)[C@@H]1CCCN1C [II-9b]
264,1,10,C[C@H](Oc1nc(-c2noc3c2CCC[C@@]32CCCc3sc(N)c(C#N)c32)nc2c1CCCO[C@]21CCOC1)[C@@H]1CCCN1C [II-10]
81,1,6,CO[C@@H]1C[C@@H]([C@H](C)Oc2nc(-c3noc4c3CCC[C@@]43CCCc4sc(N)c(C#N)c43)nc3c2COC[C@]32CCOC2)N(C)C1 [II-11]
129,1,10,C[C@H](Oc1nc(-c2noc3c2CCC[C@@]32CCCc3sc(N)c(C#N)c32)nc2c1CN(C1COC1)C[C@]21CCOC1)[C@@H]1CCCN1C [II-12]
43,1,5,CO[C@H]1CCN(C)[C@@H]1[C@H](C)Oc1nc(-c2noc3c2CCC[C@@]32CCCc3sc(N)c(C#N)c32)nc2c1CN(C1COC1)C[C@]21CCOC1 [II-13]
57,1,19,CO[C@@H]1C[C@@H]([C@H](C)Oc2nc(-c3noc4c3CCC[C@@]43CCCc4sc(N)c(C#N)c43)nc3c2CN(C2COC2)C[C@]32CCOC2)N(C)C1 [II-14]
179,1,3,C[C@H](Oc1nc(-c2noc3c2CCC[C@@]32CCCc3sc(N)c(C#N)c32)nc2c1CNC[C@]21CCOC1)[C@@H]1CCCN1C [II-15]
34,1,4,C[C@H](Oc1nc(-c2noc3c2CCC[C@@]32SCCc3sc(N)c(C#N)c32)nc2c1COC[C@]21CCOC1)[C@@H]1CCCN1C [II-16]
237,1,20,C[C@H](Oc1nc(-c2noc3c2CCC[C@@]32CCCc3sc(N)c(C#N)c32)nc2c1CN(C1COC1)C[C@]21CCOC1)[C@@H]1CC[C@H](C)N1C [II-17]

# From patent publication US20250019385A1, “SPIROCYCLIC ANNULATED 2-AMINO-3-CYANO THIOPHENES AND DERIVATIVES FOR THE TREATMENT OF CANCER” (Boehringer Ingelheim International GmbH, priority 2023, published 2025)
